The structures appear in SMILES notation.

We go through one compound from patent US20130261045A1, “GREEN TEA POLYPHENOL ALPHA SECRETASE ENHANCERS AND METHODS OF USE” (UNIVERSITY OF SOUTH FLORIDA, priority 2005, published 2013).

Experiment [1] deals with Aβ1-40 and Aβ1-42. The experiment in a line: Aβ1-40/Aβ1-42 ELISA, conditioned media of SweAPP N2a cells (Examples 6-7, with or without siRNA knock-down). It counts as cell-based, murine. The settings on record: various doses of EGCG, 8 h. The source says:
FIGS. 8A-8H show EGCG-induced ADAM10 activation correlates with APP α-secretase cleavage in vitro. […] Data were represented as % change relative to control (medium from cultured SweAPP N2a cells or primary neuronal cells without any treatment).
FIGS. 10A-10C show ADAM10 is required for EGCG-induced APP α-secretase cleavage. […] In FIG. 10A, cell lysates were subjected to WB for APP CTFs and ADAM10 cleavage analyses. […] In FIG. 10B, cell culture media were subjected to WB for sAPP-α secretion. […] In FIG. 10C, cell culture media were subjected to Aβ ELISA. Data are represented as % change relative to control (medium from cultured SweAPP N2a cells without any treatment). […]
Conditioned media were collected and analyzed at a 1:1 dilution using the method as previously described (Tan et al., 2002) and values were reported as percentage of Aβ1-x secreted relative to control. Quantitation of total Aβ species was performed according to published methods (Marambaud, P. et al., 2005). […] The optical density of each well was immediately determined by a microplate reader at 450 nm. In addition, Aβ1-40, or Aβ1-42 was separately quantified in these samples using the Aβ1-40 Aβ1-42 ELISA kits (IBL-America, Minneapolis, Minn.) in accordance with the manufacturer's instructions. In all cases, Aβ levels were expressed as a percentage of control (conditioned medium from untreated SWeAPP N2a cells). […]
On the technique in general: An ELISA detects its analyte on a solid surface through an enzyme-linked reagent.

In experiment [2] the test system is Aβ1-40 and Aβ1-42. The experiment in a line: Aβ1-40/Aβ1-42 ELISA, Tg2576 mouse-derived primary neuronal cells. The class given is cell-based. The settings on record: Tg2576 primary neurons; various doses, 8 h.
Another experiment concerns TNF-α. The experiment in a line: TNF-α levels in cultured medium of microglial cells. It counts as cell-based. The settings on record: EGCG treatment, data not shown. From the text: It has been shown that TACE is critically involved in TNF-α maturation associated with pro-inflammatory responses (Moro, M. A. et al., 2003).
Experiment [3] has as its system ADAM10. The experiment in a line: Western blot of ADAM10 maturation in N9 microglial cells. The following applies: various doses, 8 h. It counts as cell-based.
Method: Cultured cells were lysed in ice-cold lysis buffer described above, and an aliquot corresponding to 50 μg of total protein was electrophoretically separated using 16.5% Tris-tricine gels. Electrophoresed proteins were then transferred to PVDF membranes (Bio-Rad, Richmond, Calif.), washed in ddH2O, and blocked for 1 h at ambient temperature in Tris-buffered saline (TBS; Bio-Rad) containing 5% (w/v) non-fat dry milk. After blocking, membranes were hybridized for 1 h at ambient temperature with various primary antibodies. Membranes were then washed 3 times for 5 min each in ddH2O and incubated for 1 h at ambient temperature with the appropriate HRP-conjugated secondary antibody (1:1,000, Pierce Biotechnology, Inc. Rockford, Ill.). All antibodies were diluted in TBS containing 5% (w/v) of non-fat dry milk. Blots were developed using the luminol reagent (Pierce Biotechnology). Densitometric analysis was done using the Fluor-S MultiImager™ with Quantity One™ software (Bio-Rad). […] Antibodies used for Western blot included: antibody 369 (which recognizes the carboxyl-terminus of APP; 1:1,500), clone 22C11 (against the amino-terminus of APP; 1:1,500), clone 6E10 (against amino acids 1-17 of Aβ; 1:1,500), anti-ADAM9 (1:500), and antibodies against ADAM10 (1:500), ADAM17 (1:500) or actin (1:1,500; as an internal reference control).
Experiment [4] deals with ADAM10. The experiment in a line: Western blot of ADAM10 maturation in primary murine neuronal cultures. It counts as cell-based. The settings on record: various doses, 8 h. In general terms: In western blotting, separated proteins are transferred to a membrane and probed.
Method: Cultured cells were lysed in ice-cold lysis buffer described above, and an aliquot corresponding to 50 μg of total protein was electrophoretically separated using 16.5% Tris-tricine gels. Electrophoresed proteins were then transferred to PVDF membranes (Bio-Rad, Richmond, Calif.), washed in ddH2O, and blocked for 1 h at ambient temperature in Tris-buffered saline (TBS; Bio-Rad) containing 5% (w/v) non-fat dry milk. After blocking, membranes were hybridized for 1 h at ambient temperature with various primary antibodies. Membranes were then washed 3 times for 5 min each in ddH2O and incubated for 1 h at ambient temperature with the appropriate HRP-conjugated secondary antibody (1:1,000, Pierce Biotechnology, Inc. Rockford, Ill.). All antibodies were diluted in TBS containing 5% (w/v) of non-fat dry milk. Blots were developed using the luminol reagent (Pierce Biotechnology). Densitometric analysis was done using the Fluor-S MultiImager™ with Quantity One™ software (Bio-Rad). […] Antibodies used for Western blot included: antibody 369 (which recognizes the carboxyl-terminus of APP; 1:1,500), clone 22C11 (against the amino-terminus of APP; 1:1,500), clone 6E10 (against amino acids 1-17 of Aβ; 1:1,500), anti-ADAM9 (1:500), and antibodies against ADAM10 (1:500), ADAM17 (1:500) or actin (1:1,500; as an internal reference control). […]
Another experiment has as its system ADAM10 mRNA. The experiment in a line: RT-PCR of ADAM10 mRNA in SweAPP N2a cells. The class given is cell-based, murine. The following applies: various doses of EGCG, 8 h.
The next experiment has as its system Aβ generation. The experiment in a line: Aβ ELISA, conditioned media of APP-transfected N2a cells (Example 1). The class given is cell-based, murine. How it is done:
Aβ1-40 and 1-42 peptides were analyzed in the conditioned media from SweAPP N2a cells (FIGS. 1A, 1C, 1D) and transgenic APPsw mouse-derived primary neuronal cells (FIG. 1B) by ELISA (n=3 for each condition).
TAPI-1, β and γ-secretase inhibitors were obtained from Calbiochem (San Diego, Calif.). Green tea extract (75% polyphenols) was obtained from the Vitamin Shoppe™ (North Bergen, N.J.).
Cultured cells were lysed in ice-cold-lysis buffer (20 mM Tris, pH 7.5, 150 mM NaCl, 1 mM EDTA, 1 mM EGTA, 1% v/v Triton X-100, 2.5 mM sodium pyropgosphate, 1 mM β-glycerolphosphate, 1 mM Na3VO4, 1 μg/mL leupeptin, 1 mM PMSF) as previously described (Tan et al., 2002). Mouse brains were isolated under sterile conditions on ice and placed in ice-cold lysis buffer. Brains were then sonicated on ice for approximately 3 min, allowed to stand for 15 min at 4° C., and centrifuged at 15,000 rpm for 15 min. Total Aβ1-42 species were detected by acid extraction of brain homogenates in 5 M guanidine buffer (ret), followed by a 1:10 dilution in lysis buffer. Soluble Aβ1-42 was directly detected in cultured cell lysates or brain homogenates prepared with lysis buffer described above by a 1:4 or 1:10 dilution, respectively. Aβ1-42 was quantified in these samples using the Aβ1-42 ELISA kit (BioSource, Camarillo, Calif.) in accordance with the manufacturer's instructions, except that standards included a 0.5 M guanidine buffer.
In order to examine the effects of green tea's components on APP cleavage processing, for a first step, N2a neuroblastoma cells overproducing Aβ were treated with each of the aforementioned components at a wide range of doses. In addition, doses of (+)-catechin hydrate (CH) and gallic acid monohydrate (GAM) were included in the first step.

Method for ADAM10 mRNA: Analysis of murine ADAM10 was conducted according to previously published methods (Ehrhart et al., 2005; Park et al., 2001). Briefly, total RNA was isolated from SweAPP N2a cells and subjected to reverse transcription utilizing a commercially available kit (cDNA Cycle® kit; Invitrogen, Carlsbad, Calif.) according to the manufacturer's instructions on a Bio-Rad iCycler thermocycler. […] Thermocycler conditions consisted of an initial denaturing step at 95° C. for 15 min, followed by 35 cycles of 94° C. for 30 s, 50° C. for 1 min, and 72° C. for 1 min at, and a final extension step at 72° C. for 10 min. Resolution and analysis of PCR products (murine ADAM10: 881 bp, murine γ-actin: 357 bp) band densities was conducted by ethidium bromide-stained agarose gel electrophoresis and identified using UV transillumination by comparisons with molecular weight markers (Invitrogen). Samples that were not subjected to reverse transcription were run in parallel as negative controls to rule out DNA contamination as a template for PCR products (data not shown). A “no template control” was also included for each primer set as a further negative control (data not shown). Amplification of γ-actin was used to normalize for input cDNA.

Regarding `O=C(O[C@@H]1Cc2c(O)cc(O)cc2O[C@@H]1c1cc(O)c(O)c(O)c1)c1cc(O)c(O)c(O)c1` [EGCG, (−)-epigallocatechin-3-gallate], in the experiment with Aβ1-40 and Aβ1-42 [1], the Aβ1-40 concentration result was “dose-dependent reductions” and the Aβ1-42 concentration entry was “dose-dependent reductions”. Besides, in the experiment on Aβ1-40 and Aβ1-42 [2], the Aβ1-40 levels result is “dose-dependent reductions” and the Aβ1-42 levels result is “dose-dependent reductions”. For the same compound, the “TNF-α levels in cultured medium” value with TNF-α is “no associated elevation”. Besides, the ADAM10 maturation entry with ADAM10 [3] is on record as “dose-dependently increased”. Further, in the experiment with ADAM10 [4], the “mature ADAM10” value was “dose-dependent increases”. Besides, the “ADAM10 mRNA levels” value with ADAM10 mRNA was “no significant between-EGCG dose differences”. Also, the “reduction of Aβ1-42 generation over control (PBS)” value in the experiment with Aβ generation (20 μM, human APP695-transfected N2a cells, FIG. 1A) was determined as 60%. In addition, in the experiment on Aβ generation (SweAPP N2a cells, equivalent doses, FIG. 1D), the “ability to inhibit Aβ generation, purified EGCG versus same amounts EGCG present in GT mixtures” value is on record as “much greater”.
